Measurements reported in patent US6087376A (priority 1998, dated 2000).
Values joined by “and” are separate entries in the source; they are usually repeats but may differ in a detail not shown here. Equal values may be shown once. “Also recorded” adds a separate entry of the source. Read-outs that look alike come from different tables or passages of the source.

How the values were obtained:
[1] = tested on: nicotine (10 μM)-evoked [3H]overflow from rat striatal slices; assay: Mecamylamine antagonism of nicotine-evoked [3H]overflow from rat striatal slices; format: cell-based
Description: (§1) Rat striata were rapidly dissected on ice and were sliced using a McIlwain tissue chopper. […] Slices were rinsed with 15 mL fresh buffer and then incubated in fresh buffer containing 0.1 μM [^3 H]DA (6-8 slices/3 mL) for an additional 30 min. Subsequently, slices were rinsed with 15 mL fresh buffer and transferred to a glass superfusion chamber. […] After 60 min of superfusion when basal outflow was stabilized, two 5-min samples (5 mL) were collected to determine basal [^3 H]outflow.
To determine the ability of mecamylamine to antagonize nicotine-evoked [^3 H]overflow, a repeated-measure design was utilized also. Individual slices were superfused with a single concentration (0.01-100 μM) of mecamylamine for 60 min, followed by 60 min of superfusion with nicotine (10 μM) in the presence of the various mecamylamine concentrations. One slice in each experiment was superfused in the absence of mecamylamine to determine the effect of nicotine alone. A control slice was superfused with buffer alone.
(§2) The pH and volume of the solubilized tissue samples were adjusted to those of the superfusate samples.
(§3) Fractional release for each superfusate sample was calculated by dividing the tritium collected in each sample by the total tritium present in the tissue at the time of sample collection. Fractional release was expressed as a percentage of total tritium in the tissue at the time of sample collection. Basal outflow was calculated from the average of the tritium collected in the two 5-min samples just before the addition of drug.
(§4) Inhibition of synaptosomal and vesicular [^3 H]DA uptake were analyzed by repeated-measures, one-way ANOVA, and by an iterative nonlinear least-squares curve-fitting program (GraphPAD-PRIZM; GraphPAD, San Diego, Calif.) to obtain IC50 values. Dunnett's post hoc test was used to compare treatment means to a single control mean. Also, Duncan's New Multiple Range Test or Fisher's LSD post hoc analysis were used to compare pairs of treatment means. Duncan's New Multiple Range Test was used when significant one-way ANOVA's were obtained or when significant main effects were obtained in the two-way ANOVA's. Fisher's LSD post hoc analysis is a more conservative test, which takes into account error which cumulates during multiple comparisons of pairs of means. Fisher's LSD analysis was used when the interaction term was significant in the two-way ANOVAs, specifically in the post hoc analysis of drug×time interactions. Statistical significance was reached when P<0.05 (two-tailed, unless otherwise indicated).

reserpine site on VMAT2 = settings: read-out: IC50, inhibition of binding to the reserpine site; cited from earlier work
[2] = tested on: rat striatal slices preloaded with [3H]DA; assay: [3H]DA release assay: drug-evoked [3H]overflow / fractional release from rat striatal slices preloaded with [3H]DA; format: cell-based
Description: as §1
The concentration-response for each drug was determined using a repeated-measures design.
as §2, §3, §4

[3] = molecular target: T1, synaptic vesicular monoamine transporter (VMAT2), rat striatal synaptic vesicles (Rattus norvegicus, UniProt Q01827); assay: [3H]DA uptake assay, striatal synaptic vesicles; format: biochemical; settings: nicotine
T1 construct: from tissue; host or cells: rat striatum, synaptic vesicles
T1 sequence (Q01827 whole entry): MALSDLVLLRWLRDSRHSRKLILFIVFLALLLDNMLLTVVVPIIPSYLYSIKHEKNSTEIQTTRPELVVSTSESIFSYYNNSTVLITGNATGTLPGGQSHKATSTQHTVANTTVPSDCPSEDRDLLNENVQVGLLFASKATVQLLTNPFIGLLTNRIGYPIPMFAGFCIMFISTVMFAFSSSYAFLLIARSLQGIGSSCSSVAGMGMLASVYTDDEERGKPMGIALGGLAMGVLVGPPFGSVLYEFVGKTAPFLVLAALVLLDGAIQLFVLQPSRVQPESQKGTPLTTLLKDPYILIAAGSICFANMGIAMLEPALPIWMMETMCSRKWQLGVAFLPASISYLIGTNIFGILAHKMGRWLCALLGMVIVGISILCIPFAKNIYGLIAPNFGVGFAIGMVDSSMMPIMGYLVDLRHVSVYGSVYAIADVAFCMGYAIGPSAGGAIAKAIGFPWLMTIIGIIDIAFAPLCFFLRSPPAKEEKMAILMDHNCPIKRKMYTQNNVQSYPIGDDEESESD
Description: (§5) The homogenate was then centrifuged at 2,000×g for 10 min at 4° C. and the resulting supernatant was centrifuged at 10,000×g for 30 min at 4° C. Synaptosomes (buffy coat) were separated from the underlying mitochondria and cellular debris (reddish pellet) by gentle swirling in 2 mL of 0.32 M sucrose. The enriched synaptosome fraction (2.0 mL) was subjected to osmotic shock by addition of 7 mL distilled H2 0 and was homogenized with 5 up and down strokes of the TEFLON pestle. The osmolarity was restored by the addition of 900 μL of 0.25 M HEPES and 900 μL of 1.0 M neutral potassium-tatrate buffer (pH 7.5) followed by a 20 min centrifugation (20,000×g at 4° C.). The supernatant was then centrifuged for 60 min (55,000×g at 4° C.).
Samples were rapidly filtered through Whatman GF/F filters using the Brandel cell harvester.
(§6) Inhibition of synaptosomal and vesicular [^3 H]DA uptake were analyzed by repeated-measures, one-way ANOVA, and by an iterative nonlinear least-squares curve-fitting program (GraphPAD-PRIZM; GraphPAD, San Diego, Calif.) to obtain IC50 values. Dunnett's post hoc test was used to compare treatment means to a single control mean. Also, Duncan's New Multiple Range Test or Fisher's LSD post hoc analysis were used to compare pairs of treatment means. […]

[4] = tested on: rat striatal slices preloaded with [3H]DA; settings: cited from earlier work
[5] = tested on: nicotinic receptors in mouse brain; settings: in vivo; cited from earlier work
[6] = tested on: conditioned place preference in rats; settings: rat, in vivo; cited from earlier work
[7] = tested on: nicotinic receptors in rat brain; settings: in vivo; cited from earlier work
[8] = molecular target: T2, plasma membrane DA transporter (rat striatal synaptosomes) (Rattus norvegicus, UniProt P23977); assay: [3H]DA uptake assay, striatal synaptosomal preparation; format: biochemical; settings: nicotine 0.001 nM-100 μM
T2 construct: from tissue; host or cells: rat striatum, synaptosomes
T2 sequence (P23977 whole entry): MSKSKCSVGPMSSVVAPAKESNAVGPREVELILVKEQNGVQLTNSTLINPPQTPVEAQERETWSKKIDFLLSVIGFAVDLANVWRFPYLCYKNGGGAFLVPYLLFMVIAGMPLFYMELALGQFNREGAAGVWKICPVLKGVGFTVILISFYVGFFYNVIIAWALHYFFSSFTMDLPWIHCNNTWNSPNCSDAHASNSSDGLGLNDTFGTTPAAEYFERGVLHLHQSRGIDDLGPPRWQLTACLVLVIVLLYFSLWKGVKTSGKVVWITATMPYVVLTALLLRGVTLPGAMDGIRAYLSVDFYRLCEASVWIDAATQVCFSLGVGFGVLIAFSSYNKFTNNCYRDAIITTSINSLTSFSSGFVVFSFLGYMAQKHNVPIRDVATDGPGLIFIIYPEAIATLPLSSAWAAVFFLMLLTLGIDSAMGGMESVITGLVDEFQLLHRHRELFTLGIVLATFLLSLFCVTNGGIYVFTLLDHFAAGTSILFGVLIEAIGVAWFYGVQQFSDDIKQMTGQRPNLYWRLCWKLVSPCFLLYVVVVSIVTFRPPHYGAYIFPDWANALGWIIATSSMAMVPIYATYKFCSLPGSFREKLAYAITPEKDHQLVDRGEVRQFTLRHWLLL
Description: The homogenate was centrifuged at 2,000×g for 10 min at 4° C. […] The final protein concentration was 400 μg/mL. The assay was performed in duplicate in a total volume of 500 μL. […] The incubation continued for 10 min at 34° C. The reaction was terminated by the addition of 3 mL cold assay buffer (without 1 mM catechol). Samples were rapidly filtered through a Whatman GF/B filter using a Brandel cell harvester (model MP-43 RS, Biochemical Research and Development Laboratories, Inc., Gaithersburg, Md.) and the filter was subsequently washed 3 times with 4 mL of cold assay buffer containing 1 mM catechol. Filters were previously soaked for 2 hrs in the cold assay buffer containing 1 mM catechol. […] Filters were placed into scintillation vials, 10 mL of scintillation cocktail was added and radioactivity was determined by scintillation spectrometry.
as §6

[9] = tested on: locomotor activity in rats; settings: rat, in vivo; cited from earlier work
[10] = molecular target: central nicotinic receptors; settings: read-out: Kd, binding to nicotinic receptors; cited from earlier work
[11] = tested on: self-administration by rats; settings: rat, in vivo; cited from earlier work
rat brain vesicles = settings: cited from earlier work
VMAT2 knockout mice = settings: mouse, in vivo; cited from earlier work
[12] = tested on: rat striatal synaptic vesicles; assay: [3H]DA release from striatal synaptic vesicles preloaded with [3H]DA; format: biochemical
Description: as §5
The final vesicle pellet from a pool of striata from three rats was resuspended in 3 mL of release assay buffer (in mM: 25 HEPES, 100 L-(+)-tartaric acid dipotassium salt, 0.05 EGTA, 0.10 EDTA, 2 Mg^2+ -ATP, and 1.7 ascorbic acid, pH 7.4) and then incubated with [^3 H]DA (0.3 μM) for 8 min at 37° C. […] [^3 H]DA efflux represents the net result of events, i.e., release and reuptake. […] The reaction was terminated by addition of 2.5 mL of ice-cold assay buffer containing 2 mM MgSO4. Samples were rapidly filtered through Whatman GF/F filters using the Brandel cell harvester.
The amount of drug-induced [^3 H]DA release from synaptic vesicles was calculated by subtracting the amount of tritium remaining in the drug-exposed samples from that remaining in the control samples (in the absence of drug). The amount of drug-induced [^3 H]DA release was then divided by the amount of tritium remaining in the control samples and was expressed as a percentage of control.
Concentration-response and kinetic data were analyzed by repeated-measures one-way ANOVA and between-group one-way ANOVA, respectively. When appropriate, Fisher's least significant difference post hoc test was used to determine significant differences between treatment means. IC50 and EC50 values were obtained by an iterative nonlinear least-squarescurve-fitting program (GraphPAD-PRIZM: GraphPAD, San Diego, Calif., U.S.A.) for one-site competition and sigmoidal concentration response, respectively. The t1/2 was obtained by an iterative nonlinear least-squares curve-fitting program for one-phase decay. KD and Bmax values were obtained by Scatchard analysis using an iterative linear least-squares curve-fitting program.

[13] = molecular target: T3, vesicular monoamine transporter-2 (VMAT2), DTBZ/TBZ site, rat striatal vesicle membranes (Rattus norvegicus, UniProt Q01827); assay: [3H]DTBZ binding to rat striatal vesicles; settings: 2 nM [3H]DTBZ
T3 construct: from tissue; host or cells: rat striatum, synaptic vesicles
T3 sequence (Q01827 whole entry): as the sequence (Q01827 whole entry) above

human VMAT2 [14] = settings: read-out: Ki, inhibition of monoamine uptake; cited from earlier work
monoamine oxidase = settings: cited from earlier work
human VMAT2 [15] = settings: read-out: Ki, inhibition of [3H]DTBZ binding; cited from earlier work
[16] = molecular target: [3H]DTBZ binding site, rat striatal homogenates; settings: read-out: Ki, inhibition of [3H]DTBZ binding; cited from earlier work

CNC1(C)C2CCC(C2)C1(C)C (stereo not shown) [Mecamylamine]
inhibition at 0.01 µM ([1]; Rattus norvegicus, mecamylamine 0.01 μM, read-out: inhibition of nicotine's effect (fractional release)): 36% | minimal effective concentration ([1]; Rattus norvegicus, read-out: lowest concentration to produce significant inhibition of nicotine's effect (fractional release, collapsed across time)): 0.01 µM | Total [3H]overflow evoked by nicotine ([1]; mecamylamine 0.01 μM): 3.57 ± 1.52 | Total [3H]overflow evoked by nicotine ([1]; mecamylamine 0.1 μM, P<0.05 one-tailed): 2.40 ± 0.87 | Total [3H]overflow evoked by nicotine ([1]; mecamylamine 1 μM, P<0.05 two-tailed): 1.59 ± 0.64 | Total [3H]overflow evoked by nicotine ([1]; mecamylamine 10 μM, P<0.05 two-tailed): 1.02 ± 0.43 | Total [3H]overflow evoked by nicotine ([1]; mecamylamine 100 μM, P<0.05 two-tailed): 0.54 ± 0.32

CN[C@@H](C)Cc1ccccc1 [Methamphetamine]
IC50 (reserpine site on VMAT2): 400 nM

CN1CCC[C@H]1c1cccnc1 [Nicotine]
minimal effective concentration ([2]; Rattus norvegicus, read-out: lowest concentration which evoked a significant increase in [3H]overflow): 0.05 µM | time to peak fractional release after addition of drug ([2]; nicotine): 10 to 15 min | peak fractional release ([2]; nicotine 100 μM): 2 % of total tritium in the slice | concentration giving significant inhibition of vesicular [3H]DA uptake [3]: 1 mM and ~ 1 mM | mechanism of nicotine-evoked DA release [4]: calcium-dependent, mecamylamine-sensitive and mediated by nicotinic receptors | number of nicotinic receptors after chronic treatment [5]: increase in the number of nicotinic receptors | conditioned place preference [6]: produce conditioned place preference | number of nicotinic receptors after chronic treatment [7]: increase in the number of nicotinic receptors | inhibition of [3H]DA uptake into striatal synaptosomes [8]: did not inhibit; also recorded: no inhibition of synaptosomal [^3 H]DA uptake was observed; also recorded: no effect was observed | locomotor activity [9]: increase locomotor activity | Kd [10]: 1 to 7 nM | self-administration [11]: avidly self-administered by rats | total [3H]overflow ([1]; mecamylamine 0 μM (control)): 5.60 ± 1.20

COc1cc2c(cc1OC)C1CC(=O)C(CC(C)C)CN1CC2 (stereo not shown) [Tetrabenazine]
effect on spontaneous efflux of [3H]DA (rat brain vesicles): does not alter spontaneous efflux

CC(N)Cc1ccccc1 (stereo not shown) [amphetamine]
conditioned place preference in VMAT2 knockout vs wild-type mice (VMAT2 knockout mice): diminished amphetamine-induced conditioned place preference

C[C@H](N)Cc1ccccc1 [d-Amphetamine]
potency in releasing DA from synaptic vesicles vs lobeline [12]: 10 fold | lowest concentration to evoke [3H]DA release from vesicles ([12]; 8 min, 37° C.): 1 µM | EC50 ([12]; 8 min, 37° C., read-out: EC50, evoked [3H]DA release from synaptic vesicles): 2220 ± 130 nM | lowest concentration to significantly inhibit [3H]DTBZ binding [13]: 10 µM | Ki (human VMAT2 [14]): ~2000 nM | inhibition of monoamine oxidase (monoamine oxidase): inhibits monoamine oxidase | Ki (human VMAT2 [15]): 300000 nM | Ki [16]: > 20000 nM
